Test results as given in US20060089378A1 (priority 2004, published 2006).
Read-outs that look alike come from different tables or passages of the source.

Assays:
Cannabinoid CB1 Receptor = target: T1, Cannabinoid CB1 Receptor (Homo sapiens, UniProt P21554); experiment: Binding assay for CB1 agonists or inverse agonists (radioligand competition, membranes of transfected SK-N-MC cells)
T1 construct: expressed in transfected cells

Cannabinoid CB2 Receptor = target: T2, Cannabinoid CB2 Receptor (Homo sapiens, UniProt P34972); experiment: Binding assay for CB2 agonists or inverse agonists (radioligand competition, membranes of transfected SK-N-MC cells); settings: for inhibition at 0.2 µM: read-out: Cannabinoid CB2 Receptor Binding percent inhibition
T2 construct: expressed in transfected cells

CB1 receptor (human) = CB1 receptor (human) (Homo sapiens, UniProt P21554); experiment: cell-based; settings: for CB1 Receptor Functional Activity (change in functional activity, CRE β-gal): one compound concentration, β-galactosidase activity relative to vehicle treated cells
[1] = test concentration of 0.2 μM, compounds without an IC50 binding value

CB1 receptor (human), sequence (P21554 whole entry): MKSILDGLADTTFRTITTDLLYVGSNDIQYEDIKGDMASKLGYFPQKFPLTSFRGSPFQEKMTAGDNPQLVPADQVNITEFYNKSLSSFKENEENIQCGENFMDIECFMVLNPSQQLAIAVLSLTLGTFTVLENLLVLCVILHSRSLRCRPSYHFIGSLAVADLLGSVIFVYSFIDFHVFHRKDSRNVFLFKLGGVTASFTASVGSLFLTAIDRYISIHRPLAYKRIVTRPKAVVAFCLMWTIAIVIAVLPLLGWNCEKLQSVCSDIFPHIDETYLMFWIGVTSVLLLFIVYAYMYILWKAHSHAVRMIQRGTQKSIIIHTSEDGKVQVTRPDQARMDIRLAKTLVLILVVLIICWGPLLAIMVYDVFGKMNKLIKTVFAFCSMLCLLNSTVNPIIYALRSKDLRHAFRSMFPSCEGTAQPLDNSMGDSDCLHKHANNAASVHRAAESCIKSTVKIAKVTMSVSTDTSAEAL
T1 sequence (P21554 whole entry): as above
T2 sequence (P34972 whole entry): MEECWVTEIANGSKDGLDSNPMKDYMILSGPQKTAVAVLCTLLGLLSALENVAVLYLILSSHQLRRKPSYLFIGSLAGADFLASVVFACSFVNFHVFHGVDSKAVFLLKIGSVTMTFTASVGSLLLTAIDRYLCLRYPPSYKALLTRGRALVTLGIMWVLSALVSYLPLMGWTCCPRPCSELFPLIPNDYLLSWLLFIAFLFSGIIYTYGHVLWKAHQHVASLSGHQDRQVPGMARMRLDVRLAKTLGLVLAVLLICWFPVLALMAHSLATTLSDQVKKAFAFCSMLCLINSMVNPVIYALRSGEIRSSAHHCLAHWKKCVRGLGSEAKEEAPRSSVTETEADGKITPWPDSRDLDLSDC

Row | Structure (SMILES) | IC50 (Cannabinoid CB1 Receptor) [nM] | inhibition at 0.2 µM (Cannabinoid CB2 Receptor) [%] | EC50 (CB1 receptor (human)) [nM] | IC50 (Cannabinoid CB2 Receptor) [nM] | inhibition at 0.2 µM (Cannabinoid CB2 Receptor; [1]) [%] | inhibition at 0.2 µM (Cannabinoid CB1 Receptor; read-out: Cannabinoid CB1 Receptor Binding percent inhibition) [%] | CB1 Receptor Functional Activity (change in functional activity, CRE β-gal) (CB1 receptor (human)) [%] | IC50 (Cannabinoid CB2 Receptor; human CB2, SK-N-MC cell membranes, calculated by linear regression from percent inhibition at various concentrations, read-out: Cannabinoid CB2 Receptor Binding IC50) [nM]
1 | CC(=O)N1C/C(=C\c2ccc(F)cc2)c2c(c(C(=O)NN3CC4CCCC4C3)nn2-c2ccc(Cl)cc2Cl)C1 (stereo not drawn) [Cpd 91, (7E)-5-acetyl-1-(2,4-dichloro-phenyl)-7-(4-fluoro-benzylidene)-4,5,6,7-tetrahydro-1H-pyrazolo[4,3-c]pyridine-3-carboxylic acid (hexahydro-cyclopenta[c]pyrrol-2-yl)-amide] | 50 | 14 | 3 | – | – | – | – | –
2 | CC(=O)N1CCc2c(c(C(=O)NC3C4(C)CCC(C4)C3(C)C)nn2Cc2ccccc2)C1 (stereo not drawn) [Cpd 109, 5-acetyl-1-benzyl-4,5,6,7-tetrahydro-1H-pyrazolo[4,3-c]pyridine-3-carboxylic acid (1,3,3-trimethyl-bicyclo[2.2.1]hept-2-yl)-amide] | 1300 | – | 8100 | 80 | – | – | – | –
3 | COc1ccc(/C=C2\CN(C(=O)OC(C)(C)C)Cc3c(C(=O)N[C@H](C)c4ccccn4)nn(-c4ccc(Cl)cc4Cl)c32)cc1 [Cpd 89, (7E)-1-(2,4-dichloro-phenyl)-7-(4-methoxy-benzylidene)-3-[(1R)-1-pyridin-2-yl-ethylcarbamoyl]-1,4,6,7-tetrahydro-pyrazolo[4,3-c]pyridine-5-carboxylic acid tert-butyl ester] | 20 | 27 | 5 | – | – | – | – | –
4 | CCNC(=O)N1C/C(=C\c2ccc(F)cc2)c2c(c(C(=O)NN3CCCCC3)nn2-c2ccc(Cl)cc2Cl)C1 [Cpd 34, (7E)-1-(2,4-dichloro-phenyl)-7-(4-fluoro-benzylidene)-1,4,6,7-tetrahydro-pyrazolo[4,3-c]pyridine-3,5-dicarboxylic acid 5-ethylamide 3-piperidin-1-ylamide] | 50 | 12 | 9 | – | – | – | – | –
5 | COC(=O)N1C/C(=C\c2ccc(F)cc2)c2c(c(C(=O)N[C@H](C)c3ccccc3)nn2-c2ccc(Cl)cc2)C1 [Cpd 67, (7E)-1-(4-chloro-phenyl)-7-(4-fluoro-benzylidene)-3-[(1R)-1-phenyl-ethylcarbamoyl]-1,4,6,7-tetrahydro-pyrazolo[4,3-c]pyridine-5-carboxylic acid methyl ester] | 5 | 19 | 1 | – | – | – | – | –
6 | C[C@@H](NC(=O)c1nn(-c2ccc(Cl)cc2)c2c1CN(S(=O)(=O)N(C)C)C/C2=C\c1ccc(F)cc1)c1ccccc1 [Cpd 70, (7E)-1-(4-chloro-phenyl)-5-dimethylsulfamoyl-7-(4-fluoro-benzylidene)-4,5,6,7-tetrahydro-1H-pyrazolo[4,3-c]pyridine-3-carboxylic acid [(1R)-1-phenyl-ethyl]-amide] | 9 | 13 | 1 | – | – | – | – | –
7 | Cc1ccc(S(=O)(=O)N2C/C(=C\c3ccc(F)cc3)c3c(c(C(=O)N[C@H](C)c4ccccc4)nn3-c3ccc(Cl)cc3Cl)C2)cc1 [Cpd 18] | 10 | 48 | 80 | – | – | – | – | –
8 | C[C@@H](NC(=O)c1nn(-c2ccc(Cl)cc2)c2c1CN(C(=O)OC(C)(C)C)C/C2=C\c1ccc(F)cc1)c1ccccc1 [Cpd 57, (7E)-1-(4-chloro-phenyl)-7-(4-fluoro-benzylidene)-3-[(1R)-1-phenyl-ethylcarbamoyl]-1,4,6,7-tetrahydro-pyrazolo[4,3-c]pyridine-5-carboxylic acid tert-butyl ester] | 30 | – | 20 | – | 13 | – | – | –
9 | COC(=O)N1C/C(=C\c2ccc(F)cc2)c2c(c(C(=O)N[C@H](C)c3ccccc3)nn2-c2ccc(Cl)cc2Cl)C1 [Cpd 1, (7E)-1-(2,4-dichloro-phenyl)-7-(4-fluoro-benzylidene)-3-[(1R)-1-phenyl-ethyl-carbamoyl]-1,4,6,7-tetrahydro-pyrazolo[4,3-c]pyridine-5-carboxylic acid methyl ester] | 3 | 26 | 1 | – | – | – | – | –
10 | CCOC(=O)CN1C/C(=C\c2ccc(OC)cc2)c2c(c(C(=O)N[C@H](C)c3ccccc3)nn2-c2ccc(Cl)cc2Cl)C1 [Cpd 48, (7E)-[1-(2,4-dichloro-phenyl)-7-(4-methoxy-benzylidene)-3-[(1R)-1-phenyl-ethylcarbamoyl]-1,4,6,7-tetrahydro-pyrazolo[4,3-c]pyridin-5-yl]-acetic acid ethyl ester] | 4 | 38 | 0.2 | – | – | – | – | –
11 | CCNC(=O)N1C/C(=C\c2ccc(F)cc2)c2c(c(C(=O)N[C@H](C)c3ccccc3)nn2-c2ccc(Cl)cc2)C1 [Cpd 69, (7E)-1-(4-chloro-phenyl)-7-(4-fluoro-benzylidene)-1,4,6,7-tetrahydro-pyrazolo[4,3-c]pyridine-3,5-dicarboxylic acid 5-ethylamide 3-{[(1R)-1-phenyl-ethyl]-amide}] | 30 | 0 | 5 | – | – | – | – | –
12 | COc1ccc(/C=C2\CN(C(C)=O)Cc3c(C(=O)N[C@H](C)c4ccccc4)nn(-c4ccc(Cl)cc4Cl)c32)cc1 [Cpd 42, (7E)-5-acetyl-1-(2,4-dichloro-phenyl)-7-(4-methoxy-benzylidene)-4,5,6,7-tetrahydro-1H-pyrazolo[4,3-c]pyridine-3-carboxylic acid [(1R)-1-phenyl-ethyl]-amide] | 5 | 38 | 1 | – | – | – | – | –
13 | CCNC(=O)N1C/C(=C\c2ccc(OC)cc2)c2c(c(C(=O)N[C@H](C)c3ccccn3)nn2-c2ccc(Cl)cc2Cl)C1 [Cpd 98, (7E)-1-(2,4-dichloro-phenyl)-7-(4-methoxy-benzylidene)-1,4,6,7-tetrahydro-pyrazolo[4,3-c]pyridine-3,5-dicarboxylic acid 5-ethylamide 3-{[(1R)-1-pyridin-2-yl-ethyl]-amide}] | 8 | 17 | 4 | – | – | – | – | –
14 | C[C@@H](NC(=O)c1nn(-c2ccc(Cl)cc2Cl)c2c1CN(C(=O)OC(C)(C)C)C/C2=C\c1ccc(F)cc1)C1CCCCC1 [Cpd 8, (7E)-3-[(1R)-1-cyclohexyl-ethylcarbamoyl]-1-(2,4-dichloro-phenyl)-7-(4-fluoro-benzylidene)-1,4,6,7-tetrahydro-pyrazolo[4,3-c]pyridine-5-carboxylic acid tert-butyl ester] | 60 | 34 | 200 | – | – | – | – | –
15 | C[C@@H](NC(=O)c1nn(-c2ccc(Cl)cc2)c2c1CNC/C2=C\c1ccc(F)cc1)c1ccccc1 [Cpd 66, (7E)-1-(4-chloro-phenyl)-7-(4-fluoro-benzylidene)-4,5,6,7-tetrahydro-1H-pyrazolo[4,3-c]pyridine-3-carboxylic acid [(1R)-1-phenyl-ethyl]-amide] | 20 | – | 10 | – | 5 | – | – | –
16 | CC(C)(C)OC(=O)N1CCc2c(c(C(=O)NC3C4(C)CCC(C4)C3(C)C)nn2-c2ccccc2)C1 (stereo not drawn) [Cpd 111, 1-phenyl-3-(1,3,3-trimethyl-bicyclo[2.2.1]hept-2-ylcarbamoyl)-1,4,6,7-tetrahydro-pyrazolo[4,3-c]pyridine-5-carboxylic acid tert-butyl ester] | – | – | – | 100 | – | 27 | 24 | –
17 | CCNC(=O)N1C/C(=C\c2ccc(OC)cc2)c2c(c(C(=O)NC(C)c3ccccn3)nn2-c2ccc(Cl)cc2Cl)C1 (stereo not drawn) [Cpd 61, (7E)-1-(2,4-dichloro-phenyl)-7-(4-methoxy-benzylidene)-1,4,6,7-tetrahydro-pyrazolo[4,3-c]pyridine-3,5-dicarboxylic acid 5-ethylamide 3-[(1-pyridin-2-yl-ethyl)-amide]] | 20 | 7 | 5 | – | – | – | – | –
18 | COC(=O)N1C/C(=C\c2ccc(F)cc2)c2c(c(C(=O)N[C@H](C)C3CCCCC3)nn2-c2ccc(Cl)cc2Cl)C1 [Cpd 13, (7E)-3-[(1R)-1-cyclohexyl-ethylcarbamoyl]-1-(2,4-dichloro-phenyl)-7-(4-fluoro-benzylidene)-1,4,6,7-tetrahydro-pyrazolo[4,3-c]pyridine-5-carboxylic acid methyl ester] | 2 | – | 10 | – | 11 | – | – | –
19 | CS(=O)(=O)N1C/C(=C\c2ccc(F)cc2)c2c(c(C(=O)NN3CCCCC3)nn2-c2ccc(Cl)cc2Cl)C1 [Cpd 33, (7E)-1-(2,4-dichloro-phenyl)-7-(4-fluoro-benzylidene)-5-methanesulfonyl-4,5,6,7-tetrahydro-1H-pyrazolo[4,3-c]pyridine-3-carboxylic acid piperidin-1-ylamide] | 30 | 15 | 9 | – | – | – | – | –
20 | COc1ccc(/C=C2\CN(S(=O)(=O)N(C)C)Cc3c(C(=O)NC(C)c4ccccn4)nn(-c4ccc(Cl)cc4Cl)c32)cc1 (stereo not drawn) [Cpd 64, (7E)-1-(2,4-dichloro-phenyl)-5-dimethylsulfamoyl-7-(4-methoxy-benzylidene)-4,5,6,7-tetrahydro-1H-pyrazolo[4,3-c]pyridine-3-carboxylic acid (1-pyridin-2-yl-ethyl)-amide] | 6 | 62 | 1 | – | – | – | – | –
21 | CC12CCC(C1)C(C)(C)C2NC(=O)c1nn(C2CCCCC2)c2c1CNCC2 (stereo not drawn) [Cpd 118, 1-cyclohexyl-4,5,6,7-tetrahydro-1H-pyrazolo[4,3-c]pyridine-3-carboxylic acid (1,3,3-trimethyl-bicyclo[2.2.1]hept-2-yl)-amide] | 800 | – | – | – | – | – | 4 | 1800
22 | C[C@@H](NC(=O)c1nn(-c2ccc(Cl)cc2Cl)c2c1CNC/C2=C\c1ccc(F)cc1)C1CCCCC1 [Cpd 28, (7E)-1-(2,4-dichloro-phenyl)-7-(4-fluoro-benzylidene)-4,5,6,7-tetrahydro-1H-pyrazolo[4,3-c]pyridine-3-carboxylic acid [(1R)-1-cyclohexyl-ethyl]-amide] | 20 | 31 | 8 | – | – | – | – | –
